Laboratory results: article PMC7099597 (ACS Central Science, 2020)

Assays:
[1] = system: 8B10 scFv Rip-3 (anti-MPTS); assay: MPTS fluorescence quenching, protein titration; format: binding
[2] = system: 4D5Flu Rip-3 (anti-fluorescein scFv); assay: dose-dependent rescue of fluorescein quenching; format: binding, synthetic construct

Row | Structure (SMILES) | EC50 [1] [µM] | EC50 [2] [µM]
1 | COc1cc(S(=O)(=O)O)c2ccc3c(S(=O)(=O)O)cc(S(=O)(=O)O)c4ccc1c2c43 [MPTS, 8-methoxypyrene-1,3,6-trisulfonic acid] | 1 | 
2 | c1ccc(COc2ccc3cn[nH]c3c2)cc1 [Stitch-3, 6-(benzyloxy)indazole] |  | 16
